This note sets out measurements from ChEMBL document CHEMBL1133939, “Structure-activity relationship studies of a bisbenzimidazole-based, Zn(2+)-dependent inhibitor of HCV NS3 serine protease” (Bioorg Med Chem Lett, 2001).

Assay [1] has as its target T1, NS3 (Hepatitis C virus, UniProt A3EZJ3). The assay is described as follows: Inhibitory activity against hepatitis C virus (HCV) NS3 protease in the presence of Zn2+. Set-up: species or system Hepacivirus hominis.
Assay [2] concerns the target T1, NS3. The assay is described as follows: Inhibitory activity against hepatitis C virus (HCV) NS3 protease in the absence of Zn2+. Further details: species or system Hepacivirus hominis.

As usually defined, the IC50 is the concentration that gives 50% inhibition.

T1 sequence (A3EZJ3 whole entry): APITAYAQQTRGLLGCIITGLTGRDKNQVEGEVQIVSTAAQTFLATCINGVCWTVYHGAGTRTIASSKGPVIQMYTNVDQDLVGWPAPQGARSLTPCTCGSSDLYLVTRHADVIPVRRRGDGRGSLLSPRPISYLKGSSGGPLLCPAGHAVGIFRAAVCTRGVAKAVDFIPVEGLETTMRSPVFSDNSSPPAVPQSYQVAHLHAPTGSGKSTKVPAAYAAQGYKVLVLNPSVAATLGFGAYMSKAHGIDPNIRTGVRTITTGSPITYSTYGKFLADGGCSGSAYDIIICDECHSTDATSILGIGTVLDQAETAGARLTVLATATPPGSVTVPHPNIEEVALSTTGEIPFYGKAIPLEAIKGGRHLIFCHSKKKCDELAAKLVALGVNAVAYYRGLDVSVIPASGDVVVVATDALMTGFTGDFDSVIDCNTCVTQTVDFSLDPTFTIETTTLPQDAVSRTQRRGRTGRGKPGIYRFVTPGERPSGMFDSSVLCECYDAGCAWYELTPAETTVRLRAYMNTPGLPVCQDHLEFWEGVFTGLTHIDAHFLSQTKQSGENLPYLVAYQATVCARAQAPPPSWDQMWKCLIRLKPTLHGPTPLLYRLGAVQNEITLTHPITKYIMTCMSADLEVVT

On to `Cn1c(Cc2nc3cc(C(N)=O)ccc3[nH]2)nc2ccc(C(=O)NCCc3ccc(OCC(=O)O)cc3)cc21`, for which the 50% inhibitory concentration (IC50) on NS3 [1] turned out to be 16 µM.

With `Cn1c(Cc2nc3ccc(C(N)=O)cc3[nH]2)nc2ccc(C(=O)NC(CCCCCP(=O)(O)O)C(=O)O)cc21` (configuration not stated), the IC50 on NS3 [1] was determined as 0.51 µM.

On to `Cn1c(Cc2nc3ccc(C(N)=O)cc3[nH]2)nc2ccc(C(=O)NC(Cc3ccc(C(=O)O)c(OCC(=O)O)c3)C(=O)O)cc21` (configuration not stated), for which the IC50 on NS3 [1] was found to be 9 µM.

As to `Cn1c(Cc2nc3cc(C(N)=O)ccc3[nH]2)nc2ccc(C(=O)NC(CCCP(=O)(O)O)C(=O)O)cc21` (configuration not stated), on NS3 [1], the IC50 was determined as 0.82 µM.

As to `COC(=O)c1ccccc1S(=O)(=O)NC(=O)C[C@H](NC(=O)c1ccc2nc(Cc3nc4ccc(C(N)=O)cc4[nH]3)n(C)c2c1)C(=O)OCc1ccccc1`, the half-inhibitory concentration (IC50) at NS3 [1] was determined as 37 µM.

For the molecule `COC(=O)c1ccccc1S(=O)(=O)NC(=O)CC(NC(=O)c1ccc2nc(Cc3nc4ccc(C(N)=O)cc4[nH]3)n(C)c2c1)C(=O)O` (configuration not stated), the IC50 at NS3 [1] turned out to be 8.1 µM.

Consider `COC(=O)c1ccccc1S(=O)(=O)NC(=O)CC[C@H](NC(=O)c1ccc2nc(Cc3nc4cc(C(N)=O)ccc4[nH]3)n(C)c2c1)C(=O)OCc1ccccc1`, for which the IC50 on NS3 [1] worked out at 29 µM.

For `COC(=O)c1ccccc1S(=O)(=O)NC(=O)CC(NC(=O)c1ccc2nc(Cc3nc4ccccc4[nH]3)n(C)c2c1)C(=O)O` (configuration not stated), the IC50 on NS3 [1] turned out to be 11 µM.

`Cn1c(Cc2nc3ccc(C(N)=O)cc3[nH]2)nc2ccc(C(=O)NC(CCC(=O)NS(=O)(=O)c3ccccc3C(=O)O)C(=O)O)cc21` (configuration not stated): at NS3 [1], the half-inhibitory concentration (IC50) worked out at 2.6 µM.

Turning to `Cn1c(Cc2nc3ccccc3[nH]2)nc2ccc(C(=O)NC(CC(=O)NS(=O)(=O)c3ccccc3C(=O)O)C(=O)O)cc21` (configuration not stated), the IC50 on NS3 [1] amounted to 3.4 µM.

As for `Cn1c(Cc2nc3ccc(C(N)=O)cc3[nH]2)nc2ccc(C(=O)NC(Cc3ccc(OCC(=O)O)cc3)C(=O)O)cc21` (configuration not stated), the half-maximal inhibitory concentration (IC50) at NS3 [1] worked out at 1 µM.

In the case of `Cn1c(Cc2nc3cc(C(N)=O)ccc3[nH]2)nc2ccc(C(=O)NC(Cc3cccc(C(=O)O)c3)C(=O)O)cc21` (configuration not stated), the IC50 at NS3 [1] turned out to be 25 µM.

On to `Cn1c(Cc2nc3ccccc3[nH]2)nc2ccc(C(=O)NC(CCC(=O)N(CC(=O)O)CC(=O)O)C(=O)O)cc21` (configuration not stated), for which the concentration for half-maximal inhibition (IC50) on NS3 [1] came to 7.7 µM.

With `Cn1c(Cc2nc3cc(C(N)=O)ccc3[nH]2)nc2ccc(C(=O)NC(CP(=O)(O)O)C(=O)O)cc21` (configuration not stated), the 50% inhibitory concentration (IC50) against NS3 [2] worked out at 167 µM; on NS3 [1] it was 0.2 µM.

In the case of `Cn1c(Cc2nc3cc(C(N)=O)ccc3[nH]2)nc2ccc(C(=O)Nc3cc(C(=O)O)cc(C(=O)NC(CCC(=O)O)C(=O)O)c3)cc21` (configuration not stated), at NS3 [1], the IC50 came to 2 µM.

On to `Cn1c(Cc2nc3ccc(C(N)=O)cc3[nH]2)nc2ccc(C(=O)Nc3ccc(C(=O)NC(CCC(=O)O)C(=O)O)cc3)cc21` (configuration not stated), for which, at NS3 [1], the half-maximal inhibitory concentration (IC50) amounted to 17 µM.

On to `Cn1c(Cc2nc3ccc(C(N)=O)cc3[nH]2)nc2ccc(C(=O)Nc3cccc(C(=O)NCCCC(=O)O)c3)cc21`, for which the half-inhibitory concentration (IC50) at NS3 [1] is 43 µM.

For `Cn1c(Cc2nc3ccccc3[nH]2)nc2ccc(C(=O)NCCc3ccc(OCC(=O)NS(=O)(=O)c4ccccc4)cc3)cc21`, on NS3 [1], the concentration for half-maximal inhibition (IC50) turned out to be 12 µM.

As to `Cn1c(Cc2nc3ccc(C(N)=O)cc3[nH]2)nc2ccc(C(=O)Nc3cccc(C(=O)NC(CCC(=O)O)C(=O)O)c3)cc21` (configuration not stated), the IC50 on NS3 [1] was determined as 6.4 µM.

Regarding `Cn1c(Cc2nc3ccc(C(N)=O)cc3[nH]2)nc2ccc(C(=O)NC(Cc3ccc(O)c(C(=O)O)c3)C(=O)O)cc21` (configuration not stated), at NS3 [1], the IC50 is 7 µM.

Turning to `Cn1c(Cc2nc3cc(C(N)=O)ccc3[nH]2)nc2ccc(C(=O)NC(Cc3ccc(OCC(=O)O)c(C(=O)O)c3)C(=O)O)cc21` (configuration not stated), the IC50 on NS3 [1] came out at 4 µM.

Regarding `Cn1c(Cc2nc3cc(C(N)=O)ccc3[nH]2)nc2ccc(C(=O)Nc3cc(C(=O)O)cc(C(=O)NC(CC(=O)O)C(=O)O)c3)cc21` (configuration not stated), at NS3 [1], the IC50 turned out to be 1 µM.

On to `Cn1c(Cc2nc3cc(C(N)=O)ccc3[nH]2)nc2ccc(C(=O)NC(CC(C(=O)O)C(=O)O)C(=O)O)cc21` (configuration not stated), for which the concentration for half-maximal inhibition (IC50) at NS3 [1] turned out to be 2.6 µM.

Consider `Cn1c(Cc2nc3ccc(C(N)=O)cc3[nH]2)nc2ccc(C(=O)NC(Cc3cc(OCC(=O)O)ccc3C(=O)O)C(=O)O)cc21` (configuration not stated), for which the IC50 on NS3 [1] turned out to be 12 µM.

Take `Cn1c(Cc2nc3cc(C(N)=O)ccc3[nH]2)nc2ccc(C(=O)NC(CCP(=O)(O)O)C(=O)O)cc21` (configuration not stated): at NS3 [1], the IC50 was 0.87 µM.

With `Cn1c(Cc2nc3cc(C(N)=O)ccc3[nH]2)nc2ccc(C(=O)NC(CC(=O)NS(=O)(=O)c3ccccc3C(=O)O)C(=O)O)cc21` (configuration not stated), on NS3 [1], the IC50 was 1.6 µM.
